Results on eight compounds are retold here after US6344454B1, “Nonsteroidal gestagens” (Schering Aktiengesellschaft, priority 1997, dated 2002).

For data set [1], the target named is T1, gestagen receptor (Oryctolagus cuniculus, UniProt P06186).
T1 construct: using cytosol from rabbit uterus homogenate; from tissue; host or cells: rabbit uterus cytosol
T1 sequence (P06186 1-930): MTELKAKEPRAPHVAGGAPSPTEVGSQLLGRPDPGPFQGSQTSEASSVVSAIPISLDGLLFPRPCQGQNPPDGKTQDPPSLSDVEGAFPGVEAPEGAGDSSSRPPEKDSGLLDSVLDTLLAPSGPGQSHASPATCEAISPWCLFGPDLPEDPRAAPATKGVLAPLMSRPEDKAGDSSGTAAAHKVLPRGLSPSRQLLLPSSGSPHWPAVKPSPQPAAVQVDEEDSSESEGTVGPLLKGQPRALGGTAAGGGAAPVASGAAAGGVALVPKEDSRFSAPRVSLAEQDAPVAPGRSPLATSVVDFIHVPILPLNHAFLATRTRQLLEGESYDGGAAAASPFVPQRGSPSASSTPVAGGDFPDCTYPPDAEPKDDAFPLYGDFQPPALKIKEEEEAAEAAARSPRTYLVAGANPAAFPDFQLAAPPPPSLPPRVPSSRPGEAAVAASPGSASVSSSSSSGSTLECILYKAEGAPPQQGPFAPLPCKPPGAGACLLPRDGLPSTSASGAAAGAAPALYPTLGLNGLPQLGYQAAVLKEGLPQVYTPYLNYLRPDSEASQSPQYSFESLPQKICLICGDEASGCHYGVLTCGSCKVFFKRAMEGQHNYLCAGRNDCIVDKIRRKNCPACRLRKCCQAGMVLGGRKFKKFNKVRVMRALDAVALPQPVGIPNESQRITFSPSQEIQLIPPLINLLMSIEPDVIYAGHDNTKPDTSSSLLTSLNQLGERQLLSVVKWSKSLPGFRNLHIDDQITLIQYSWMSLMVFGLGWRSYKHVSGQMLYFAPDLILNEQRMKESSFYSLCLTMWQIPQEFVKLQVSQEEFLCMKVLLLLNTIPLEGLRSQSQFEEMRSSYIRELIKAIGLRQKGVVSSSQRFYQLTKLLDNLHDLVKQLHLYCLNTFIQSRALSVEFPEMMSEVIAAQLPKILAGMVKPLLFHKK
In words: gestagen receptor bonding test (cytosol from rabbit uterus homogenate, 3H-progesterone as reference substance). The class given is binding. From the text: In the gestagen receptor bonding test on the gestagenic action using cytosol from rabbit uterus homogenate and from ^3H-progesterone as a reference substance, the new compounds show a strong to very strong affinity to the gestagen receptor (see Table 1).

In the case of `COc1cccc(C(C)(C)CC(O)(C(=O)Nc2ccc3c(c2)COC3=O)C(F)(F)F)c1` (stereo not shown) [Example 4, 5-[2-Hydroxy-4-(3-methoxyphenyl)-4-methyl-2-trifluoromethyl-valeroylamino]-phthalide], the melting point lay within 129 to 130 °C. For `CC(CC(O)(C(=O)Nc1ccc([N+](=O)[O-])c(C(F)(F)F)c1)C(F)(F)F)c1ccccc1` (stereo not shown) [(*) (Melting point 141-142° C.), reference compound], the “Competition Factor (Reference Substance 3H-Progesterone)” value (shortened to “Competition Factor”) in data set [1] came out at 17. With `Cc1noc(=O)c2ccc(NC(=O)C(O)(CC(C)(C)c3ccccc3)C(F)(F)F)cc12` (stereo not shown) [Example 106], the melting point amounted to 123 °C. The “Competition Factor” value in data set [1] is 0.55. `CC(C)(CC(O)(CNc1ccc2c(c1)COC2=O)C(F)(F)F)c1ccccc1` (racemic) [Example 65] showed a melting point of 154 °C. In addition, the “Competition Factor” value in data set [1] amounted to 0.17. `CC(C)Oc1ccc(F)cc1C(C)(C)CC(O)(C(=O)Nc1ccc2c(c1)COC2=O)C(F)(F)F` (racemic) [Example 155] showed a melting point of 153 to 154 °C. Take `CC(CC(O)(C(=O)Nc1ccc([N+](=O)[O-])c(C(F)(F)F)c1)C(F)(F)F)c1ccccc1` (stereo not shown) [(*) (Melting point 161° C.), reference compound]: the “Competition Factor” value in data set [1] is reported as 2.0. For the compound `Cc1noc(=O)c2ccc(NC(=O)C(O)(CC(C)(C)c3ccccc3)C(F)(F)F)cc12` (stereo not shown) [Example 42, 6-(2-Hydroxy-4-methyl-4-phenyl-2-trifluoromethyl-valeroyl-amino)-4-methyl-2,3-benzoxazin-1-one], the melting point was in the range of 172 to 173 °C. For the compound `CC(C)(CC(O)(C(=O)Nc1ccc2c(c1)COC2=O)C(F)(F)F)c1cccs1` (single isomer, unassigned; (+)) [Example 103 (+)-2-thienyl, (+)-5-[2-hydroxy-4-methyl-4-(2-thienyl)-2-trifluoromethyl-valeroylamino]-phthalide], the melting point is 166 °C.
